Assay results from PMC2877376 (Journal of biomolecular screening, 2009).

System: E. coli K-12 sulA-gfp (strain SS996)
Assay: RecA-dependent SOS activation, sulA-gfp reporter
Format: cell-based, Escherichia coli
Details: ciprofloxacin only, 90 min, 37 °C; untreated bacteria 0.76

O=C(O)c1cn(C2CC2)c2cc(N3CCNCC3)c(F)cc2c1=O [ciprofloxacin]
relative GFP expression (GFP/DAPI intensity ratio): 0.87
